Laboratory results published in US4684664A, “Derivatives of β-(4-isocyano-1,2,3,4-diepoxycyclopentyl) acrylic acid” (Kureha Kagaku Kogyo Kabushiki Kaisha, priority 1984, dated 1987).
Converted amounts (≈) assume the structure as drawn.

Columns and labels:
Type in all cases: cell-based
[1] = test system: Staphylococcus aureus FDA 209PJc-1; test: Antibacterial activity, agar-dilution MIC, organism No. 1; details: Staphylococcus aureus, FDA209PJC1; Organism No. 1, bouillon-agar; read-out: Minimum Inhibitory Concentration
Summary of the method: (§1)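 Agar dilution, bouillon-agar plates; MIC reported in μg/ml of medium.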

[2] = test system: Staphylococcus aureus Terajima; test: Antibacterial activity, agar-dilution MIC, organism No. 2; details: Staphylococcus aureus; Organism No. 2, bouillon-agar; read-out: Minimum Inhibitory Concentration
Summary of the method: as §1

[3] = test system: Staphylococcus aureus MS 353; test: Antibacterial activity, agar-dilution MIC, organism No. 3; details: Staphylococcus aureus, MS353; Organism No. 3, bouillon-agar; read-out: Minimum Inhibitory Concentration
Summary of the method: as §1

[4] = test system: Streptococcus pyogenes Cook; test: Antibacterial activity, agar-dilution MIC, organism No. 4; details: Streptococcus pyogenes; Organism No. 4, bouillon-agar; read-out: Minimum Inhibitory Concentration
Summary of the method: as §1

[5] = test system: Escherichia coli NIHJ-JC-2; test: Antibacterial activity, agar-dilution MIC, organism No. 5; details: Escherichia coli, NIHJJC2; Organism No. 5, bouillon-agar; read-out: Minimum Inhibitory Concentration
Summary of the method: as §1

[6] = test system: Escherichia coli K12 C600 IAM 1264; test: Antibacterial activity, agar-dilution MIC, organism No. 6; details: Escherichia coli, IAM1264; Organism No. 6, bouillon-agar; read-out: Minimum Inhibitory Concentration
Summary of the method: as §1

[7] = test system: Klebsiella pneumoniae PCI-602; test: Antibacterial activity, agar-dilution MIC, organism No. 7; details: Klebsiella pneumoniae, PCI602; Organism No. 7, bouillon-agar; read-out: Minimum Inhibitory Concentration
Summary of the method: as §1

[8] = test system: Salmonella typhimurium IID 971; test: Antibacterial activity, agar-dilution MIC, organism No. 8; details: Salmonella enterica; Organism No. 8, bouillon-agar; read-out: Minimum Inhibitory Concentration
Summary of the method: as §1

Salmonella typhi 901 = test: Antibacterial activity, agar-dilution MIC, organism No. 9; details: Salmonella enterica, TYPHI, read-out: Minimum Inhibitory Concentration
Summary of the method: as §1

[9] = test system: Salmonella paratyphi-A 1015; test: Antibacterial activity, agar-dilution MIC, organism No. 10; details: Salmonella enterica, PARATYPHI, read-out: Minimum Inhibitory Concentration
Summary of the method: as §1

[10] = test system: Salmonella shottmuelleri 8006; test: Antibacterial activity, agar-dilution MIC, organism No. 11; details: Salmonella, 8006; Organism No. 11, bouillon-agar; read-out: Minimum Inhibitory Concentration
Summary of the method: as §1

[11] = test system: Salmonella enteritidis G 14; test: Antibacterial activity, agar-dilution MIC, organism No. 12; details: Salmonella enterica, ENTERITIDIS; Organism No. 12, bouillon-agar; read-out: Minimum Inhibitory Concentration
Summary of the method: as §1

[12] = test system: Serratia marcescens IAM 1184; test: Antibacterial activity, agar-dilution MIC, organism No. 13; details: Serratia marcescens, IAM1184; Organism No. 13, bouillon-agar; read-out: Minimum Inhibitory Concentration
Summary of the method: as §1

[13] = test system: Bacillus subtilis ATCC 6633; test: Antibacterial activity, agar-dilution MIC, organism No. 14; details: Bacillus subtilis, ATCC6633; Organism No. 14, bouillon-agar; read-out: Minimum Inhibitory Concentration
Summary of the method: as §1

[14] = test system: Pseudomonas aeruginosa IFO 3445; test: Antibacterial activity, agar-dilution MIC, organism No. 15; details: Pseudomonas aeruginosa, IFO3445; Organism No. 15, bouillon-agar; read-out: Minimum Inhibitory Concentration
Summary of the method: as §1

[15] = test system: Pseudomonas aeruginosa NCTC 10490; test: Antibacterial activity, agar-dilution MIC, organism No. 16; details: Pseudomonas aeruginosa, NCTC10490; Organism No. 16, bouillon-agar; read-out: Minimum Inhibitory Concentration
Summary of the method: as §1

[16] = test system: Pseudomonas aeruginosa PAO 1; test: Antibacterial activity, agar-dilution MIC, organism No. 17; details: Pseudomonas aeruginosa, PAO1; Organism No. 17, bouillon-agar; read-out: Minimum Inhibitory Concentration
Summary of the method: as §1

[17] = test system: Proteus morganii IFO 3848; test: Antibacterial activity, agar-dilution MIC, organism No. 18; details: Morganella morganii, IFO3848; Organism No. 18, bouillon-agar; read-out: Minimum Inhibitory Concentration
Summary of the method: as §1

[18] = test system: Proteus mirabilis IFO 3849; test: Antibacterial activity, agar-dilution MIC, organism No. 19; details: Proteus mirabilis, IFO3849; Organism No. 19, bouillon-agar; read-out: Minimum Inhibitory Concentration
Summary of the method: as §1

Proteus vulgaris OX-19 = test: Antibacterial activity, agar-dilution MIC, organism No. 20; details: Proteus vulgaris, OX19; Organism No. 20, bouillon-agar; read-out: Minimum Inhibitory Concentration
Summary of the method: as §1

Proteus vulgaris HX-19 = test: Antibacterial activity, agar-dilution MIC, organism No. 21; details: Proteus vulgaris, HX19; Organism No. 21, bouillon-agar; read-out: Minimum Inhibitory Concentration
Summary of the method: as §1

[19] = test system: Proteus rettgeri IFO 3850; test: Antibacterial activity, agar-dilution MIC, organism No. 22; details: Providencia rettgeri, IFO3850; Organism No. 22, bouillon-agar; read-out: Minimum Inhibitory Concentration
Summary of the method: as §1

[20] = test system: Enterobacter aerogenes ATCC 13048; test: Antibacterial activity, agar-dilution MIC, organism No. 23; details: Klebsiella aerogenes, ATCC13048; Organism No. 23, bouillon-agar; read-out: Minimum Inhibitory Concentration
Summary of the method: as §1

Enterobacter cloacae 963 = test: Antibacterial activity, agar-dilution MIC, organism No. 24; details: Enterobacter cloacae, 963; Organism No. 24, bouillon-agar; read-out: Minimum Inhibitory Concentration
Summary of the method: as §1

[21] = test system: Micrococcus luteus ATCC 9341; test: Antibacterial activity, agar-dilution MIC, organism No. 25; details: Micrococcus luteus, ATCC9341; Organism No. 25, bouillon-agar; read-out: Minimum Inhibitory Concentration
Summary of the method: as §1

[22] = test system: Streptococcus pyogenes IFO 3340; test: Antibacterial activity, agar-dilution MIC, organism No. 26; details: Streptococcus pyogenes, IFO3340; Organism No. 26, bouillon-agar; read-out: Minimum Inhibitory Concentration
Summary of the method: as §1

[23] = test system: Streptococcus faecium IFO 3826; test: Antibacterial activity, agar-dilution MIC, organism No. 27; details: Enterococcus faecium, IFO3826; Organism No. 27, bouillon-agar; read-out: Minimum Inhibitory Concentration
Summary of the method: as §1

[24] = test system: Mycoplasma pneumoniae IID817; test: Antimycoplasmal activity, MIC by phenol red colour change, organism No. 28; details: Mycoplasma, IID817; Organism No. 28, PPLO broth + 1% glucose, 37° C.; read-out: Minimum Inhibitory Concentration (MIC)
Procedure: Mycoplasma pneumoniae IID817 was used as the test microorganism in a culture medium prepared by adding 1% of glucose to "PPLO broth (manufactured by Difco Co.) liquid culture medium" at 37° C. with phenol red as an indicator, thereby culturing the test microorganism.

[25] = test system: Candida albicans IAM 4905; test: Antifungal activity, agar-dilution MIC, organism No. 29; details: Candida albicans, IAM4905; Organism No. 29, bouillon-agar; read-out: Minimum Inhibitory Concentration
Summary of the method: as §1

[26] = test system: Aspergillus niger IFO 6342; test: Antifungal activity, agar-dilution MIC, organism No. 30; details: Aspergillus niger, IFO6342; Organism No. 30, bouillon-agar; read-out: Minimum Inhibitory Concentration
Summary of the method: as §1

| SMILES | MIC [1] [µg/mL] | MIC [2] [µg/mL] | MIC [3] [µg/mL] | MIC [4] [µg/mL] | MIC [5] [µg/mL] | MIC [6] [µg/mL] | MIC [7] [µg/mL] | MIC [8] [µg/mL] | MIC (Salmonella typhi 901) [µg/mL] | MIC [9] [µg/mL] | MIC [10] [µg/mL] | MIC [11] [µg/mL] | MIC [12] [µg/mL] | MIC [13] [µg/mL] | MIC [14] [µg/mL] | MIC [15] [µg/mL] | MIC [16] [µg/mL] | MIC [17] [µg/mL] | MIC [18] [µg/mL] | MIC (Proteus vulgaris OX-19) [µg/mL] | other results |
| --- | --- | --- | --- | --- | --- | --- | --- | --- | --- | --- | --- | --- | --- | --- | --- | --- | --- | --- | --- | --- | --- |
| [C-]#[N+]C12CC3(/C=C/C(=O)OCc4ccc([N+](=O)[O-])cc4)OC3C1O2 (stereo not drawn) [compound 15] | 25 (≈ 76.2 µM) | 50 (≈ 152 µM) | 25 (≈ 76.2 µM) | 50 (≈ 152 µM) | 50 (≈ 152 µM) | 50 (≈ 152 µM) | 12.5 (≈ 38.1 µM) | 50 (≈ 152 µM) | 25 (≈ 76.2 µM) | 25 (≈ 76.2 µM) | 12.5 (≈ 38.1 µM) | 50 (≈ 152 µM) | > 100 | 50 (≈ 152 µM) | > 100 | > 100 | > 100 | 25 (≈ 76.2 µM) | 100 (≈ 305 µM) | 6.25 (≈ 19 µM) | MIC (Proteus vulgaris HX-19): < 0.1 µg/mL; MIC [19]: > 100 µg/mL; MIC [20]: > 100 µg/mL; MIC (Enterobacter cloacae 963): > 100 µg/mL; MIC [21]: < 0.1 µg/mL; MIC [22]: 50 µg/mL (≈ 152 µM); MIC [23]: 25 µg/mL (≈ 76.2 µM); MIC [24]: 12 µg/mL; MIC [25]: 6.25 µg/mL (≈ 19 µM); MIC [26]: 6.25 µg/mL (≈ 19 µM) |
| [C-]#[N+]C12CC3(/C=C/C(=O)Nc4ccc(N)cc4)OC3C1O2 (stereo not drawn) [compound 59] | 6.25 (≈ 22.1 µM) | 25 (≈ 88.2 µM) | 6.25 (≈ 22.1 µM) | 50 (≈ 176 µM) | 25 (≈ 88.2 µM) | 25 (≈ 88.2 µM) | 3.13 (≈ 11 µM) | 12.5 (≈ 44.1 µM) | 6.25 (≈ 22.1 µM) | 6.25 (≈ 22.1 µM) | 6.25 (≈ 22.1 µM) | 6.25 (≈ 22.1 µM) | 200 (≈ 706 µM) | 12.5 (≈ 44.1 µM) | > 200 | > 200 | > 200 | 3.13 (≈ 11 µM) | > 200 | 1.56 (≈ 5.51 µM) | MIC (Proteus vulgaris HX-19): 1.56 µg/mL (≈ 5.51 µM); MIC [19]: 200 µg/mL (≈ 706 µM); MIC [20]: > 200 µg/mL; MIC (Enterobacter cloacae 963): > 200 µg/mL; MIC [21]: 0.78 µg/mL (≈ 2.75 µM); MIC [22]: 6.25 µg/mL (≈ 22.1 µM); MIC [23]: 100 µg/mL (≈ 353 µM); MIC [24]: < 0.2 µg/mL; MIC [25]: 12.5 µg/mL (≈ 44.1 µM); MIC [26]: 12.5 µg/mL (≈ 44.1 µM) |
| [C-]#[N+]C12CC3(/C=C/C(=O)Nc4ccccc4C(N)=O)OC3C1O2 (stereo not drawn) [compound 62] | 12.5 (≈ 40.2 µM) | 50 (≈ 161 µM) | 12.5 (≈ 40.2 µM) | > 200 | > 200 | > 200 | 3.13 (≈ 10.1 µM) | 50 (≈ 161 µM) | 25 (≈ 80.3 µM) | 25 (≈ 80.3 µM) | 25 (≈ 80.3 µM) | 50 (≈ 161 µM) | > 200 | 25 (≈ 80.3 µM) | > 200 | > 200 | > 200 | 12.5 (≈ 40.2 µM) | > 200 | 3.13 (≈ 10.1 µM) | MIC (Proteus vulgaris HX-19): 3.13 µg/mL (≈ 10.1 µM); MIC [19]: > 200 µg/mL; MIC [20]: > 200 µg/mL; MIC (Enterobacter cloacae 963): > 200 µg/mL; MIC [21]: 25 µg/mL (≈ 80.3 µM); MIC [22]: 6.25 µg/mL (≈ 20.1 µM); MIC [23]: > 200 µg/mL; MIC [24]: < 0.2 µg/mL; MIC [25]: 100 µg/mL (≈ 321 µM); MIC [26]: 100 µg/mL (≈ 321 µM) |
| [C-]#[N+]C12CC3(/C=C/C(=O)Nc4cccc(O)c4)OC3C1O2 (stereo not drawn) [compound 57] | 1.56 (≈ 5.49 µM) | 6.25 (≈ 22 µM) | 1.56 (≈ 5.49 µM) | 12.5 (≈ 44 µM) | 12.5 (≈ 44 µM) | 12.5 (≈ 44 µM) | 1.56 (≈ 5.49 µM) | 12.5 (≈ 44 µM) | 3.13 (≈ 11 µM) | 3.13 (≈ 11 µM) | 1.56 (≈ 5.49 µM) | 3.13 (≈ 11 µM) | 12.5 (≈ 44 µM) | 6.25 (≈ 22 µM) | > 200 | > 200 | > 200 | 1.56 (≈ 5.49 µM) | 6.25 (≈ 22 µM) | 1.56 (≈ 5.49 µM) | MIC (Proteus vulgaris HX-19): 0.78 µg/mL (≈ 2.74 µM); MIC [19]: 3.13 µg/mL (≈ 11 µM); MIC [20]: > 200 µg/mL; MIC (Enterobacter cloacae 963): 100 µg/mL (≈ 352 µM); MIC [21]: 0.1 µg/mL (≈ 0.352 µM); MIC [22]: 3.13 µg/mL (≈ 11 µM); MIC [23]: 25 µg/mL (≈ 87.9 µM); MIC [24]: < 0.2 µg/mL; MIC [25]: 50 µg/mL (≈ 176 µM); MIC [26]: 50 µg/mL (≈ 176 µM) |
